Reference: patent EP2161278B1, “Single-chain coiled coil scaffold” (Complix N.V., priority 2008, dated 2010)
Entries after “also recorded” stand apart in the source; their conditions may differ. Peptide text beside a SMILES is read from it.

Assay: Thermal denaturation of trimeric coiled coil peptides by CD thermal scan (signal at 222 nm versus temperature, curve fitting)
Assay type: physicochemical
Details: for effect of core substitution on stability (transition temperature) compared to the reference peptide comprising isoleucine at positions 3a and 3d: core mutants at positions 3a and 3d of the reference peptide with glutamine at 2a, Figure 9
Protocol: The said synthesized peptide was dissolved at a concentration of 292 microM in 20 mM phosphate buffer (PBS), 150 mM NaCl, pH 7.2. The CD spectra were measured between […], at 5 and 90 degrees Celsius (Figure 3). The spectrum at 5 degrees Celsius was indicative of a high alpha-helical secondary structure content, in agreement with the expectation that all heptad regions, but not all of the flanking residues, would assemble as alpha-helical coiled coils.
To analyse whether the temperature-induced transition between helical and nonhelical states was reversible, a forward (up) and backward (down) thermal scan was performed on the same sample, by recording the CD signal at […] as a function of temperature at a scanning rate of about 1 degree Celsius per minute (Figure 4). It was observed that the up and down scans almost perfectly coincided, thereby confirming the quantitative unfolding and refolding of the peptides in the sample.
It was further analyzed whether the thermal unfolding curve of Figure 4 conformed to the thermodynamic equations describing the equilibrium folding/unfolding reaction between three molecules free (monomeric) peptide and one entity of folded (trimeric) complex. This reaction is generally written as 3 peptide <=> peptide3 wherein "<=>" refers to a chemical equilibrium, "peptide" to a monomeric peptide in solution and "peptide3" to a trimeric entity in the folded (assembled, associated) state. This thermal unfolding curve was fitted to the theoretic equations: θ(T) = θM (T) + (θT(T)-θM(T))(1+root(F(-(1)/(2)+sqrt((1)/(4) + (F)/(27))), 3)+root(F(-(1)/(2)-sqrt((1)/(4) + (F)/(27))), 3)) [formula] wherein F = (exp(-(ΔHt)/(RT)(1-T/T1)-(ΔCp)/(RT)(T-Tt-Tln(T/Tt))))/(4) [formula] and T≡ the temperature, in degrees Kelvin, of the sample θ(T)≡ the CD-signal [theta]222 nm, in deg cm^2 dmol^-1, as a function of T θM(T)≡ the CD-signal for 100% free (monomeric) peptide as a function of T θT(T) ≡ the CD-signal for 100% associated (trimeric) peptide as a function of T Tt ≡ the transition temperature, where 50% of the total peptide concentration is associated ΔHt ≡ the enthalpy difference, in kJ per mole peptide, between mono- and trimeric states ΔCp ≡ the heat capacity difference, in J mol^-1 K^-1, between mono- and trimeric states R ≡ the ideal (universal) gas constant ≡ 8.31 J mol^-1 K^-1
The global CD signal was somewhat lower than expected, which could be due to an instrumental deviation, an error in the concentration determination, a lower purity, or a lower than expected alpha-helical content. Nevertheless, the main goal of this experiment was to examine the effect of the glutamine-to-isoleucine mutant on the stability of the complex. […] The estimated transition temperature was around 97 degrees Celsius, although the latter was difficult to determine because of incompleteness of the transition.
All ten peptides were analyzed by thermal CD scanning as in Examples 3 and 4. Fitting of the thermal denaturation curves, as described in Example 3, gave the corresponding transition temperatures shown in Figure 9. […]

In the case of CC[C@H](C)[C@H](NC(=O)[C@H](C)NC(=O)[C@H](C)NC(=O)[C@@H](NC(=O)[C@H](CCC(N)=O)NC(=O)[C@H](CCCCN)NC(=O)[C@H](CCC(N)=O)NC(=O)[C@@H](NC(=O)[C@H](CCC(=O)O)NC(=O)[C@H](CCC(=O)O)NC(=O)[C@@H](NC(=O)[C@H](CO)NC(=O)[C@H](CCSC)NC(C)=O)[C@@H](C)CC)[C@@H](C)CC)[C@@H](C)CC)C(=O)N[C@@H](CCC(N)=O)C(=O)N[C@@H](CCCCN)C(=O)N[C@@H](CCC(N)=O)C(=O)N[C@H](C(=O)N[C@@H](C)C(=O)N[C@@H](C)C(=O)N[C@H](C(=O)N[C@@H](CCC(N)=O)C(=O)N[C@@H](CCCCN)C(=O)N[C@@H](CCC(N)=O)C(=O)N[C@H](C(=O)N[C@@H](Cc1ccc(O)cc1)C(=O)N[C@@H](CCCNC(=N)N)C(=O)N[C@@H](CCSC)C(=O)N[C@H](C(=O)N1CCC[C@H]1C(N)=O)[C@@H](C)O)[C@@H](C)CC)[C@@H](C)CC)[C@@H](C)CC [Q2aI] (Ac-MSIEEIQKQIAAIQKQIAAIQKQIYRMTP-NH2), the estimated transition temperature (292 microM peptide in 20 mM phosphate buffer (PBS), 150 mM NaCl, pH 7.2, CD signal at 222 nM, difficult to determine because transition incomplete) is reported as “around 97 degrees Celsius”, the “did not quantitatively unfold up to” value (CD thermal scan) is reported as 95 degrees Celsius and the “thermal stability (resistance against thermal denaturation), in words” value (from here on “thermal stability”) (CD thermal scan) is reported as “extremely thermostable; also recorded: thermally stable”. For the same compound, the “thermal stability” value (CD thermal scan, listed as all-isoleucine core peptide) was “very high thermal stability” and the “reversibility of thermal unfolding (down-scan recovery of the CD signal)” value (up and down thermal scan, about 1 degree Celsius per minute) was “full reversibility”.

In the case of CC[C@H](C)[C@H](NC(=O)[C@H](C)NC(=O)[C@H](C)NC(=O)[C@H](CCC(N)=O)NC(=O)[C@H](CCC(N)=O)NC(=O)[C@H](CCCCN)NC(=O)[C@H](CCC(N)=O)NC(=O)[C@@H](NC(=O)[C@H](CCC(=O)O)NC(=O)[C@H](CCC(=O)O)NC(=O)[C@@H](NC(=O)[C@H](CO)NC(=O)[C@H](CCSC)NC(C)=O)[C@@H](C)CC)[C@@H](C)CC)C(=O)N[C@@H](CCC(N)=O)C(=O)N[C@@H](CCCCN)C(=O)N[C@@H](CCC(N)=O)C(=O)N[C@H](C(=O)N[C@@H](C)C(=O)N[C@@H](C)C(=O)N[C@@H](C)C(=O)N[C@@H](CCC(N)=O)C(=O)N[C@@H](CCCCN)C(=O)N[C@@H](CCC(N)=O)C(=O)N[C@H](C(=O)N[C@@H](Cc1ccc(O)cc1)C(=O)N[C@@H](CCCNC(=N)N)C(=O)N[C@@H](CCSC)C(=O)N[C@H](C(=O)N1CCC[C@H]1C(N)=O)[C@@H](C)O)[C@@H](C)CC)[C@@H](C)CC [3dA] (Ac-MSIEEIQKQQAAIQKQIAAAQKQIYRMTP-NH2), the “effect of core substitution on stability (transition temperature) compared to the reference peptide comprising isoleucine at positions 3a and 3d” value is reported as “relatively strong”.

In the case of CC[C@H](C)[C@H](NC(=O)[C@H](C)NC(=O)[C@H](C)NC(=O)[C@H](CCC(N)=O)NC(=O)[C@H](CCC(N)=O)NC(=O)[C@H](CCCCN)NC(=O)[C@H](CCC(N)=O)NC(=O)[C@@H](NC(=O)[C@H](CCC(=O)O)NC(=O)[C@H](CCC(=O)O)NC(=O)[C@@H](NC(=O)[C@H](CO)NC(=O)[C@H](CCSC)NC(C)=O)[C@@H](C)CC)[C@@H](C)CC)C(=O)N[C@@H](CCC(N)=O)C(=O)N[C@@H](CCCCN)C(=O)N[C@@H](CCC(N)=O)C(=O)N[C@H](C(=O)N[C@@H](C)C(=O)N[C@@H](C)C(=O)N[C@@H](CO)C(=O)N[C@@H](CCC(N)=O)C(=O)N[C@@H](CCCCN)C(=O)N[C@@H](CCC(N)=O)C(=O)N[C@H](C(=O)N[C@@H](Cc1ccc(O)cc1)C(=O)N[C@@H](CCCNC(=N)N)C(=O)N[C@@H](CCSC)C(=O)N[C@H](C(=O)N1CCC[C@H]1C(N)=O)[C@@H](C)O)[C@@H](C)CC)[C@@H](C)CC [3dS] (Ac-MSIEEIQKQQAAIQKQIAASQKQIYRMTP-NH2), the “effect of core substitution on stability (transition temperature) compared to the reference peptide comprising isoleucine at positions 3a and 3d” value is reported as “disruptive”.

For CC[C@H](C)[C@H](NC(=O)[C@H](C)NC(=O)[C@H](C)NC(=O)[C@H](CCC(N)=O)NC(=O)[C@H](CCC(N)=O)NC(=O)[C@H](CCCCN)NC(=O)[C@H](CCC(N)=O)NC(=O)[C@@H](NC(=O)[C@H](CCC(=O)O)NC(=O)[C@H](CCC(=O)O)NC(=O)[C@@H](NC(=O)[C@H](CO)NC(=O)[C@H](CCSC)NC(C)=O)[C@@H](C)CC)[C@@H](C)CC)C(=O)N[C@@H](CCC(N)=O)C(=O)N[C@@H](CCCCN)C(=O)N[C@@H](CCC(N)=O)C(=O)N[C@@H](C)C(=O)N[C@@H](C)C(=O)N[C@@H](C)C(=O)N[C@H](C(=O)N[C@@H](CCC(N)=O)C(=O)N[C@@H](CCCCN)C(=O)N[C@@H](CCC(N)=O)C(=O)N[C@H](C(=O)N[C@@H](Cc1ccc(O)cc1)C(=O)N[C@@H](CCCNC(=N)N)C(=O)N[C@@H](CCSC)C(=O)N[C@H](C(=O)N1CCC[C@H]1C(N)=O)[C@@H](C)O)[C@@H](C)CC)[C@@H](C)CC [3aA] (Ac-MSIEEIQKQQAAIQKQAAAIQKQIYRMTP-NH2), the “effect of core substitution on stability (transition temperature) compared to the reference peptide comprising isoleucine at positions 3a and 3d” value was “disruptive”.

With CC[C@H](C)[C@H](NC(=O)[C@H](C)NC(=O)[C@H](C)NC(=O)[C@H](CCC(N)=O)NC(=O)[C@H](CCC(N)=O)NC(=O)[C@H](CCCCN)NC(=O)[C@H](CCC(N)=O)NC(=O)[C@@H](NC(=O)[C@H](CCC(=O)O)NC(=O)[C@H](CCC(=O)O)NC(=O)[C@@H](NC(=O)[C@H](CO)NC(=O)[C@H](CCSC)NC(C)=O)[C@@H](C)CC)[C@@H](C)CC)C(=O)N[C@@H](CCC(N)=O)C(=O)N[C@@H](CCCCN)C(=O)N[C@@H](CCC(N)=O)C(=O)N[C@H](C(=O)N[C@@H](C)C(=O)N[C@@H](C)C(=O)N[C@@H](CC(C)C)C(=O)N[C@@H](CCC(N)=O)C(=O)N[C@@H](CCCCN)C(=O)N[C@@H](CCC(N)=O)C(=O)N[C@H](C(=O)N[C@@H](Cc1ccc(O)cc1)C(=O)N[C@@H](CCCNC(=N)N)C(=O)N[C@@H](CCSC)C(=O)N[C@H](C(=O)N1CCC[C@H]1C(N)=O)[C@@H](C)O)[C@@H](C)CC)[C@@H](C)CC [3dL] (Ac-MSIEEIQKQQAAIQKQIAALQKQIYRMTP-NH2) the “effect of core substitution on stability (transition temperature) compared to the reference peptide comprising isoleucine at positions 3a and 3d” value was “slightly stabilizing effect”.

In the case of CC[C@H](C)[C@H](NC(=O)[C@H](C)NC(=O)[C@H](C)NC(=O)[C@H](CCC(N)=O)NC(=O)[C@H](CCC(N)=O)NC(=O)[C@H](CCCCN)NC(=O)[C@H](CCC(N)=O)NC(=O)[C@@H](NC(=O)[C@H](CCC(=O)O)NC(=O)[C@H](CCC(=O)O)NC(=O)[C@@H](NC(=O)[C@H](CO)NC(=O)[C@H](CCSC)NC(C)=O)[C@@H](C)CC)[C@@H](C)CC)C(=O)N[C@@H](CCC(N)=O)C(=O)N[C@@H](CCCCN)C(=O)N[C@@H](CCC(N)=O)C(=O)N[C@H](C(=O)N[C@@H](C)C(=O)N[C@@H](C)C(=O)N[C@H](C(=O)N[C@@H](CCC(N)=O)C(=O)N[C@@H](CCCCN)C(=O)N[C@@H](CCC(N)=O)C(=O)N[C@H](C(=O)N[C@@H](Cc1ccc(O)cc1)C(=O)N[C@@H](CCCNC(=N)N)C(=O)N[C@@H](CCSC)C(=O)N[C@H](C(=O)N1CCC[C@H]1C(N)=O)[C@@H](C)O)[C@@H](C)CC)[C@@H](C)CC)[C@@H](C)CC [Q2a] (Ac-MSIEEIQKQQAAIQKQIAAIQKQIYRMTP-NH2), the “thermal stability” value (CD thermal scan) is reported as “moderately stable”.

For CC[C@H](C)[C@H](NC(=O)[C@H](C)NC(=O)[C@H](C)NC(=O)[C@H](CCC(N)=O)NC(=O)[C@H](CCC(N)=O)NC(=O)[C@H](CCCCN)NC(=O)[C@H](CCC(N)=O)NC(=O)[C@@H](NC(=O)[C@H](CCC(=O)O)NC(=O)[C@H](CCC(=O)O)NC(=O)[C@@H](NC(=O)[C@H](CO)NC(=O)[C@H](CCSC)NC(C)=O)[C@@H](C)CC)[C@@H](C)CC)C(=O)N[C@@H](CCC(N)=O)C(=O)N[C@@H](CCCCN)C(=O)N[C@@H](CCC(N)=O)C(=O)N[C@@H](CCC(N)=O)C(=O)N[C@@H](C)C(=O)N[C@@H](C)C(=O)N[C@H](C(=O)N[C@@H](CCC(N)=O)C(=O)N[C@@H](CCCCN)C(=O)N[C@@H](CCC(N)=O)C(=O)N[C@H](C(=O)N[C@@H](Cc1ccc(O)cc1)C(=O)N[C@@H](CCCNC(=N)N)C(=O)N[C@@H](CCSC)C(=O)N[C@H](C(=O)N1CCC[C@H]1C(N)=O)[C@@H](C)O)[C@@H](C)CC)[C@@H](C)CC [3aQ] (Ac-MSIEEIQKQQAAIQKQQAAIQKQIYRMTP-NH2), the “effect of core substitution on stability (transition temperature) compared to the reference peptide comprising isoleucine at positions 3a and 3d” value was “relatively strong”.
